Test results from PMC6522510 (Nature Communications, 2019).
Structures can show the parent of a compound that is named as a salt. Where two headings read alike, the source gives them in different places.

How the values were obtained:
Design in all cases: species or system AML cell lines (8); Primary HTS, single concentration about 10 uM, Cell Titer Glo viability; log10 luminescence, per cent inhibition relative to cycloheximide control
Details in all cases: 72 h, relative to cycloheximide control, log10 luminescence, inhibitor
U937 = tested on: U937
M07e = tested on: M07e
ML-2 = tested on: ML-2
CHRF288-11 = tested on: CHRF288-11
MV4-11 = tested on: MV4-11
CMK = tested on: CMK
MOLM-13 = tested on: MOLM-13
CMS = tested on: CMS

SMILES	U937 %inh (U937)	M07e %inh (M07e)	ML-2 %inh (ML-2)	CHRF288-11 %inh (CHRF288-11)	MV4-11 %inh (MV4-11)	CMK %inh (CMK)	MOLM-13 %inh (MOLM-13)	CMS %inh (CMS)	M07e %inh (M07e; M07e %inh, 10 µM)	ML-2 %inh (ML-2; ML-2 %inh, 10 µM)	CHRF288-11 %inh (CHRF288-11; CHRF288-11 %inh, 10 µM)	MV4-11 %inh (MV4-11; MV4-11 %inh, 10 µM)	CMK %inh (CMK; CMK %inh, 10 µM)	MOLM-13 %inh (MOLM-13; MOLM-13 %inh, 10 µM)	U937 %inh (U937; U937 %inh, 10 µM)	CMS %inh (CMS; CMS %inh, 10 µM)
CO[C@@]1(NC(=O)Cc2cccs2)C(=O)N2C(C(=O)O)=C(COC(N)=O)CS[C@@H]21 [SJ000285599-4, CEFOXITIN SODIUM]	-1.811%	-3.67%	-2.877%	-4.487%	-5.193%	1.325%	3.83%	-1.051%								
CCCCNC(=O)NS(=O)(=O)c1ccc(C)cc1 [SJ000285613-7, TOLBUTAMIDE]	-1.884%	-0.3777%	1.608%	-1.378%	0.676%	-3.705%	-1.699%	0.8795%								
CC(C)[N+](C)(CCC(C(N)=O)(c1ccccc1)c1ccccc1)C(C)C [SJ000285636-4, ISOPROPAMIDE IODIDE]	-1.123%	2.458%	-0.5962%	8.188%	-0.6779%	-6.961%	19.61%	-2.262%								
COc1cccc(OC)c1C(=O)N[C@@H]1C(=O)N2[C@@H]1SC(C)(C)[C@@H]2C(=O)O [SJ000285650-3, METHICILLIN SODIUM]	1.642%	-0.3426%	-0.07595%	120.3%	-1.181%	-1.148%	-0.5712%	-3.883%								
CN(C)[C@@H]1C(=O)C(C(N)=O)=C(O)[C@@]2(O)C(=O)C3=C(O)c4c(O)cccc4[C@@](C)(O)[C@H]3[C@H](O)[C@@H]12 [SJ000285682-4, OXYTETRACYCLINE | OXYTETRACYCLINE DIHYDRATE | OXYTETRACYCLINE HYDROCHLORIDE | OXYTETRACYCLINE (TERRAMYCIN)]	0.3352%	-0.1554%	0.3169%	25.02%	-1.23%	-2.364%	3.957%	0.1991%								
Cn1c(=O)c2c(ncn2C)n(C)c1=O [SJ000285694-6, CAFFEINE]	-2.594%	4.484%	0.4974%	-2.164%	-1.738%	-3.637%	-2.617%	0.8967%								
CCn1nc(C(=O)O)c(=O)c2cc3c(cc21)OCO3 [SJ000285711-7, CINOXACIN]	2.404%	5.282%	-1.975%	0.6656%	3.259%	0.4853%	1.821%	0.852%								
CN(C)/N=N/c1[nH]cnc1C(N)=O [SJ000285718-4, DACARBAZINE]	1.118%	-1.918%	-0.5509%	9.396%	4.433%	31.68%	31.43%	-1.6%								
C#C[C@]1(O)CC[C@H]2[C@@H]3CCC4=Cc5oncc5C[C@]4(C)[C@H]3CC[C@@]21C [SJ000285723-7, DANAZOL]	4.655%	0.05908%	0.4162%	3.76%	3.859%	-0.5732%	13.86%	-0.3914%								
CC(=O)N(O)CCCCCNC(=O)CCC(=O)N(O)CCCCCNC(=O)CCC(=O)N(O)CCCCCN [SJ000285725-5, DEFEROXAMINE MESYLATE]	32.98%							49.53%	9.207%	13.98%	11.75%	0.1216%	30.74%	54.77%		
C/C=C(/C(=C/C)c1ccc(O)cc1)c1ccc(O)cc1 [SJ000285735-4, DIENESTROL]									-0.9445%	0.7684%	-2.974%	-1.794%	4.084%	3.801%	2.437%	-3.971%
C/C=C(/C(=C/C)c1ccc(O)cc1)c1ccc(O)cc1 [SJ000285735-5, DIENESTROL]									2.558%	1.532%	-2.147%	1.913%	33.82%	17.84%	2.402%	-2.72%
CCN(CC)C(=O)N1CCN(C)CC1 [SJ000285736-4, DIETHYLCARBAMAZINE CITRATE]	2.79%	-3.005%	-1.11%	-2.146%	2.119%	2.446%	1.95%	-4.008%								
O=C(O)c1cc(-c2ccc(F)cc2F)ccc1O [SJ000285738-4, DIFLUNISAL]	4.296%	2.006%	-0.2454%	-4.662%	3.937%	-0.9892%	1.208%	0.6702%								
C[C@H]1O[C@@H](O[C@H]2[C@@H](O)C[C@H](O[C@H]3[C@@H](O)C[C@H](O[C@H]4CC[C@@]5(C)[C@H](CC[C@@H]6[C@@H]5C[C@@H](O)[C@]5(C)[C@@H](C7=CC(=O)OC7)CC[C@]65O)C4)O[C@@H]3C)O[C@@H]2C)C[C@H](O)[C@@H]1O [SJ000285739-5, DIGOXIN]									115.6%	70.4%	126.2%	85.53%	94.03%	106.4%	89.45%	110.4%
C[C@H]1O[C@@H](O[C@H]2[C@@H](O)C[C@H](O[C@H]3[C@@H](O)C[C@H](O[C@H]4CC[C@@]5(C)[C@H](CC[C@@H]6[C@@H]5C[C@@H](O)[C@]5(C)[C@@H](C7=CC(=O)OC7)CC[C@]65O)C4)O[C@@H]3C)O[C@@H]2C)C[C@H](O)[C@@H]1O [SJ000285739-6, DIGOXIN]									102.6%	63.97%	118.6%	80.5%	86.52%	91.77%	81.18%	96.75%
CN(C)CCOC(C)(c1ccccc1)c1ccccn1 (stereo not drawn) [SJ000285751-7, DOXYLAMINE SUCCINATE]	-1.083%	1.23%	-0.5397%	11.69%	-5.123%	-1.167%	4.161%	-0.1312%								
C[C@]12CC[C@@H]3c4ccc(O)cc4CC[C@H]3[C@@H]1CCC2=O [SJ000285760-7, ESTRONE]									1.639%	0.07519%	-1.204%	2.184%	0.6093%	-0.4054%	0.9734%	0.8051%
